“Also recorded” adds a separate entry of the source.
Tests used:
[1] = Rotorod test for drug induced neurological deficit (neurotoxicity), ip; format: in vivo, male Carworth Farms no. 1 mice; settings: for Rotorod: effective or [maximum ineffective] intraperitoneal dose: neurotoxicity, 30 min or 4 hr, 30, 100, 300 mg/kg, bracketed = maximum ineffective dose (given as >), unbracketed = effective (neurotoxic) dose (=)
Experimental: (§1) Biological Testing--Compounds were screened for anticonvulsant activity in male Carworth Farms no. 1 mice. The maximal electroshock (MES), subcutaneous Metrazol (pentylenetetrazole) (Met), and threshold tonic extension (TTE) tests were used to evaluate compounds for anticonvulsive activity. A rotorod protocol was used to determine neurotoxicity. Solutions for injection were prepared in 30% polyethylene glycol 400. Except for the TTE tests, animals were dosed ip at two different time periods: either 30 min. or 4 hr prior to testing. At each time period, three groups of four mice were tested at the following dose levels: 30, 100, and 300 mg/kg. This treatment protocol was followed for MES, Met, and rotorod testing.
Animals were tested for drug induced neurological deficit using a rotorod. Either 30 min. or 4 hr after treatment, the animal was placed on a 1-inch diameter knurled plastic rod rotating at 6 rpm. Neurological deficit was defined as the failure of the animal to remain on the rod for 1 min.

[2] = molecular target: T1, glycine binding site on the NMDA receptor (Rattus norvegicus, UniProt P35439); assay: Inhibition of [^3 H]-5,7-dichlorokynurenic acid specific binding; format: rat (cerebral cortex membranes); settings: for [^3 H]-5,7-dichlorokynurenic acid displacement: 10 uM; for remaining activity at 10 µM: 0.25 h, pH 7.4, 10 uM test compound, read-out: Inhibition of [^3 H]-5,7-Dichlorokynurenic Acid Binding, % of Control; for remaining activity at 10 µM / Inhibition of [^3 H]-5,7-Dichlorokynurenic Acid Binding, % of Control: 10 nM radioligand, pH 7.4, mean ± SEM of three determinations; for Inhibition of [^3 H]-5,7-Dichlorokynurenic Acid Binding, % of Control: 10 uM test compound, 15 min, 10 µM
T1 construct: Membranes were prepared from rat cerebral cortex; from tissue; host or cells: rat cerebral cortex, "buffy coat" membrane fragments
Experimental: Binding Studies--The procedure of Baron et al. (1991) was used to assay for the inhibition of specific binding at the glycine binding site on the NMDA receptor. The labeled ligand used in this assay was [^3 H]-5,7-dichlorokynurenic acid (15.8 Ci/mmol) from DuPont-New England Nuclear (Boston, Mass.). […] Inhibition of specific binding was determined for selected compounds at a concentration of 10 uM using "buffy coat" membrane fragments (Jones et al., 1989). Membranes were prepared from rat cerebral cortex and assays were conducted in 50 mM HEPES-KOH buffer (Sigma, St. Louis, Mo.) at pH 7.4. Membranes were incubated in a final volume of 1 mL containing 10 nM [^3 H]-5,7-dichlorokynurenic acid. Incubation was continued for 15 min. at 4° C. Nonspecific binding was determined in the presence of 1 mM glycine and subtracted. Binding was terminated by centrifugation at 48,000×g for 10 min. Each of the resultant pellets was washed rapidly with 1 mL ice water and solubilized with 1 mL of a tissue solubilizer (Solvable, DuPont NEN). The solubilized samples were each dissolved in 10 mL 3a70B Complete Counting Cocktail (RPI, Mount Prospect, Ill.). Membrane bound radioactivity was determined using a Beckman LS-5000TD liquid scintillation counter. This screening procedure was conducted in triplicate in three separate tests. Results are presented as percent of control (±SEM, standard error of the mean).

[3] = Overall in vivo activity (MES, Met, TTE, rotorod); design: species or system male Carworth Farms no. 1 mice; settings: ip
Experimental: as §1
Maximal electroshock (MES) induced seizures were elicited with a 60 cycle alternating current of 50 mA intensity (five to seven times the intensity necessary to evoke minimal electroshock threshold seizures). Current was delivered via corneal electrodes for 0.2 sec. A drop of 0.9% saline was instilled in the eye prior to application of the electrodes. Abolition of the hindlimb tonic extension component of the seizure was defined as protection. […]
The threshold tonic extension (TTE) test is similar to the MES screen but uses a lower level of electrical current (Piredda et al., 1985). […] An ED50 value was determined from a log dose-response plot of the resulting data. […]

TTE seizure = assay: Threshold tonic extension (TTE) test, ip; format: in vivo, male Carworth Farms no. 1 mice; settings: for minimal effective dose at 100 mg/kg: ip 100 mg/kg, 1/4 to 4 hr post treatment, 12.5 mA, bracketed = maximum ineffective dose (given as >), unbracketed = effective dose (=), read-out: TTE: effective or [maximum ineffective] intraperitoneal dose
Experimental: as §1
The threshold tonic extension (TTE) test is similar to the MES screen but uses a lower level of electrical current (Piredda et al., 1985). The lower current makes the test more sensitive but less discriminate than the MES screen. Twenty mice were pretreated ip with 100 mg/kg of the test compound. At time intervals of 1/4, 1/2, 1, 2, and 4 hr post treatment, 4 mice were challenged with 12.5 mA of electrical current for 0.2 sec. via corneal electrodes. This current produces a TTE seizure in untreated animals. Protection was defined as an absence of seizures. Additional TTE testing was conducted on compound 10 to determine the ED50 value for the observed protective effect. In this case, 6 groups containing either 8 or 16 animals were injected ip and tested two hours following treatment. Each group received a specified dose ranging from 20-500 mg/kg. An ED50 value was determined from a log dose-response plot of the resulting data.

MES induced seizures = assay: Maximal electroshock (MES) anticonvulsant test, ip; format: in vivo, male Carworth Farms no. 1 mice
Experimental: as §1
Maximal electroshock (MES) induced seizures were elicited with a 60 cycle alternating current of 50 mA intensity (five to seven times the intensity necessary to evoke minimal electroshock threshold seizures). Current was delivered via corneal electrodes for 0.2 sec. A drop of 0.9% saline was instilled in the eye prior to application of the electrodes. Abolition of the hindlimb tonic extension component of the seizure was defined as protection.

[4] = test system: NMDA-associated PCP binding site; assay: [^3 H]-TCP binding displacement; format: rat (cerebral cortex membranes)
Experimental: Compound 10 was also screened for activity at the NMDA-associated PCP binding site, and, additionally, for activity at the GABA-A neuroreceptor. To determine possible effects on PCP binding, N-(1-(2-thienyl)cyclohexyl)-3,4-[^3 H]-piperidine ("[^3 H]-TCP") binding was assayed using the technique of Johnson et al. (1988). TCP is the thienyl derivative of PCP. Binding of [^3 H]-TCP to the NMDA receptor complex can be modulated by glycine agonists and antagonists (Benavides et al., 1988). DuPont-New England Nuclear was the source for [^3 H]-TCP (44.5 Ci/mmol). Membranes were prepared as described above. Assays were conducted in 5 mM Tris-acetate (pH 7.4) buffer containing 10 uM L-glutamic acid and 3 uM glycine. […] Nonspecific binding was determined in the presence of 30 uM PCP and subtracted. Samples were incubated at 24° C. for 1 hr. Binding was terminated using a Brandel M-24C cell harvester employing rapid filtration through GF/C glass filters presoaked in 0.1%(v/v)polyethylenimine. Filters were washed rapidly with two 1 mL aliquots of ice-cold water. Samples were run in triplicate at six different drug concentrations ranging from 1 uM to 5 nM. The experiment was repeated with buffer containing 0.1 mM L-glu and no added glycine. Two separate assays were conducted for each experiment.

GABA-A neuroreceptor = assay: [^3 H]-muscimol competition binding; format: rat (cerebral cortex membranes); settings: 5 nM [^3 H]-muscimol, compound 10 uM to 10 nM
Experimental: Compound 10 was screened for activity at the GABA-A neuroreceptor complex using [^3 H]-muscimol (20.0 Ci/mmol), also from DuPont-New England Nuclear. The filtration method reported by Williams and Risley (1979) was used for this assay. Membranes were initially prepared as described previously and frozen at -20° C. in distilled water for 24 hr. After thawing, membranes were resuspended in 50 mM Tris-acetate buffer (pH 7.0) which contained 0.1% (v/v) saponin (Sigma). The tissue was centrifuged at 48,000×g for 20 min. and the resulting pellet was resuspended in 30 volumes of 50 mM Tris-acetate buffer (pH 7.0) containing 100 mM KCI. The tissue was again centrifuged at 48,000×g for 20 min. After decanting the supernatant, the pellet was covered with fresh KCI containing Tris-acetate buffer and frozen for 24 hr.
On the day of the assay, the tissue was thawed and resuspended in 30 volumes of 50 mM Trisacetate (pH 7.0) with 100 mM KCI and centrifuged at 48,000×g for 20 min. This washing procedure was repeated twice. The final pellet was resuspended in 32 mL buffer. Membranes were incubated in a final volume of 1 mL with 5 nM [^3 H]-muscimol at 4° C. for 30 min. Samples were run in triplicate employing six different concentrations of compound 10 ranging from 10 uM to 10 nM. The assay was performed in duplicate. Each sample, including controls, contained 1.0% dimethyl sulfoxide (DMSO) to insure solubilization of the test compound. Nonspecific binding was determined in the presence of 200 uM gamma-aminobutyric acid (GABA) and subtracted. Binding was terminated using a Brandel M-24C cell harvester employing rapid filtration through GF/C glass fiber filters presoaked in 0.1% (v/v) polyethylenimine. Filters were washed with 1 mL cold water. Radioactivity bound to the filters was determined by scintillation counting.

Row | remaining activity at 10 µM [2] [%] | Compound | Rotorod: effective or [maximum ineffective] intraperitoneal dose [1] [mg/kg] | minimal effective dose at 100 mg/kg (TTE seizure; Mus musculus) [mg/kg] | also measured
1 | 58 ± 8 | CCN(CC)C(=O)Nc1cc(C(=O)OC)nc2cc(Cl)cc(Cl)c12 [Compound 1] | > 300 | – | [^3 H]-5,7-dichlorokynurenic acid displacement [2]: active; in vivo / CNS anticonvulsant activity [3]: no in vivo activity; also recorded: no CNS activity; also recorded: did not have any in vivo effects
2 | – | CCOC(=O)c1cc(NC(=O)N(CC)CC)c2c(Cl)cc(Cl)cc2n1 [Compound 2] | > 300 | 100 | –
3 | – | CCN(CC)C(=O)Nc1cc(C(=O)O)nc2cc(Cl)cc(Cl)c12 [Compound 3] | 300 | > 100 | neurotoxicity in rotorod test [1]: neurotoxic
4 | 57 ± 1 | CCOC(=O)c1cc(NC(=O)N(C)C)c2c(Cl)cc(Cl)cc2n1 [Compound 4] | > 300 | > 100 | [^3 H]-5,7-dichlorokynurenic acid displacement [2]: active; in vivo / CNS anticonvulsant activity [3]: no in vivo activity; also recorded: no CNS activity; also recorded: did not have any in vivo effects
5 | – | CN(C)C(=O)Nc1cc(C(=O)O)nc2cc(Cl)cc(Cl)c12 [Compound 5] | > 300 | – | MES activity (MES induced seizures): demonstrated activity
6 | 76 ± 6 | CCCCN(CCCC)C(=O)Nc1cc(C(=O)OCC)nc2cc(Cl)cc(Cl)c12 [Compound 6] | > 300 | 100 | –
7 | 20 ± 11 | CCCCN(CCCC)C(=O)Nc1cc(C(=O)O)nc2cc(Cl)cc(Cl)c12 [Compound 7] | > 300 | 100 | Inhibition of [^3 H]-5,7-Dichlorokynurenic Acid Binding, % of Control [2]: 20-30 % of Control
8 | 77 ± 7 | CCOC(=O)c1cc(NC(=O)N(c2ccccc2)c2ccccc2)c2c(Cl)cc(Cl)cc2n1 [Compound 8] | > 300 | 100 | –
9 | 25 ± 5 | O=C(O)c1cc(NC(=O)N(c2ccccc2)c2ccccc2)c2c(Cl)cc(Cl)cc2n1 [Compound 9] | > 300 | 100 | Inhibition of [^3 H]-5,7-Dichlorokynurenic Acid Binding, % of Control [2]: 20-30 % of Control
10 | 42 ± 7 | COC(=O)c1cc(NC(=O)N(c2ccccc2)c2ccccc2)c2c(Cl)cc(Cl)cc2n1 [Compound 10, 2-methyl carboxylate-5,7-dichloro-4-[[(diphenylamino)-carbonyl]amino]-quinoline] | > 300 | 100 | ED50 (TTE seizure; Mus musculus, 2 h, ip, two hours following treatment, doses 20-500 mg/kg): 134 mg/kg; S.E. of slope of TTE dose-response (TTE seizure; log dose-response plot, ip): 0.44; slope of TTE dose-response (TTE seizure; log dose-response plot, ip): 1.9; Inhibition of [^3 H]-5,7-Dichlorokynurenic Acid Binding, % of Control [2]: 42 % of Control; effect on [^3 H]-TCP binding ([4]; 10 uM L-glutamic acid and 3 uM glycine, compound 1 uM to 5 nM): No significant effect; effect on [^3 H]-TCP binding ([4]; 10 uM L-glutamic acid and 3 uM glycine, compound 1 uM to 5 nM, listed as 2-methyl carboxylate-5,7-dichloro-4-[[(diphenylamino)-carbonyl]amino]-quinoline): No significant effect; effect on [^3 H]-TCP binding ([4]; L-glutamate, no added glycine, compound 5 uM to 10 nM): no significant effect; PCP activity at the NMDA receptor ([4]; summary statement): tested negative; effect on [^3 H]-muscimol binding (GABA-A) (GABA-A neuroreceptor): No significant difference from control; also recorded: no effect; also recorded: No significant effects were observed; effect on [^3 H]-muscimol binding (GABA-A) (GABA-A neuroreceptor; listed as 2-methyl carboxylate-5,7-dichloro4-[[(diphenylamino)-carbonyl]amino]-quinoline): tested negative; effect on [^3 H]-muscimol binding (GABA-A) (GABA-A neuroreceptor; listed as 2-methyl carboxylate-5,7-dichloro-4-[[(diphenylamino)-carbonyl]amino]-quinoline): No significant effects were observed
11 | – | CCOC(=O)c1cc(NC(=O)N(c2ccccc2)c2cccc(OC)c2)c2c(Cl)cc(Cl)cc2n1 [Compound 11] | > 300 | 100 | TTE anticonvulsant activity (TTE seizure; ip, 100 mg/kg): active
12 | – | COc1cccc(N(C(=O)Nc2cc(C(=O)O)nc3cc(Cl)cc(Cl)c23)c2ccccc2)c1 [Compound 12] | > 300 | – | MES activity (MES induced seizures): demonstrated activity

Source: patent publication US5783700A, “Quinolic acid derivatives” (priority 1997, dated 1998)
